Assay results published in ChEMBL document CHEMBL5380861, “Design and Synthesis of Orexin 1 Receptor-Selective Agonists” (J Med Chem, 2023).

Experiments:
[1] = target: T1, Orexin/Hypocretin receptor type 1 (Homo sapiens, UniProt O43613); assay: Agonist activity at OX1R (unknown origin)
T1 sequence (O43613 whole entry): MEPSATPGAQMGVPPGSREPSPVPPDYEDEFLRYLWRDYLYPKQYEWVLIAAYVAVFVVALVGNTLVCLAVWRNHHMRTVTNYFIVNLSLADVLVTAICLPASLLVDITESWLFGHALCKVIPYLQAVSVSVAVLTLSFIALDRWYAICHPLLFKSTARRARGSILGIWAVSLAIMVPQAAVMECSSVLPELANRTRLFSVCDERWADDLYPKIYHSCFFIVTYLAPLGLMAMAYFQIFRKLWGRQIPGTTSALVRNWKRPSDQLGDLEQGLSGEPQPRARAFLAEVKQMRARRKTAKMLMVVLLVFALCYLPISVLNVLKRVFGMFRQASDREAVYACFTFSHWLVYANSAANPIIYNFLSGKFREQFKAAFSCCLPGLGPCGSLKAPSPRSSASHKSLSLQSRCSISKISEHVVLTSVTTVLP

[2] = Ratio of drug concentration in mouse brain to plasma at 40 mg/kg, sc
[3] = target: T2, Orexin/Hypocretin receptor type 1 (Mus musculus, UniProt P58307); assay: Agonist activity at mouse OX1R expressed in HEK293 cells by AP-TGFalpha reporter assay
T2 sequence (P58307 whole entry): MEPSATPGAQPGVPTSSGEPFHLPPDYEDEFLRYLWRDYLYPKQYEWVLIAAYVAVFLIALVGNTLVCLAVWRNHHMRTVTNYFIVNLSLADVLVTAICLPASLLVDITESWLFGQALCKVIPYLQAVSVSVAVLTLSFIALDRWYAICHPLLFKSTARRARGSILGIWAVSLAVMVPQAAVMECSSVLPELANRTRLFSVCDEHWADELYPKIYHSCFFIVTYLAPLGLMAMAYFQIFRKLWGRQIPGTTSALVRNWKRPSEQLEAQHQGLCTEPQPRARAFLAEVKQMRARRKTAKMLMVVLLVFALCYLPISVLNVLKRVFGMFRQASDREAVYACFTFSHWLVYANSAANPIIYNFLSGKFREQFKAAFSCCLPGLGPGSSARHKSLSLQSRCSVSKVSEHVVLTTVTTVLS

[4] = Drug concentration in mouse plasma at 40 mg/kg, sc; format: ADME, organism-based; conditions: in vivo
[5] = Drug concentration in mouse brain at 40 mg/kg, sc; format: ADME, organism-based; conditions: in vivo
[6] = target: T3, Orexin receptor type 2 (Mus musculus, UniProt P58308); assay: Agonist activity at mouse OX2R expressed in HEK293 cells by AP-TGFalpha reporter assay
T3 sequence (P58308 whole entry): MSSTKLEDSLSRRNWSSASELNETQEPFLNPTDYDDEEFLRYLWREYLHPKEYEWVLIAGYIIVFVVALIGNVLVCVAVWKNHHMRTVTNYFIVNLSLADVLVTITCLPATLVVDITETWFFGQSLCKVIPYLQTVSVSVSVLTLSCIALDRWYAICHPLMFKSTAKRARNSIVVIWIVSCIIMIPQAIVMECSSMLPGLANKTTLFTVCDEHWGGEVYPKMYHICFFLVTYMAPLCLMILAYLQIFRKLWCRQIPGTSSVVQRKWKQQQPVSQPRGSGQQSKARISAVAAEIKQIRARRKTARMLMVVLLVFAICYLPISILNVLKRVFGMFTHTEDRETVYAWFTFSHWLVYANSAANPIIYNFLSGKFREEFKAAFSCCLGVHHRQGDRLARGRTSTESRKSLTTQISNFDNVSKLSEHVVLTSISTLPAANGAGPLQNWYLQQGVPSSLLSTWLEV

[7] = target: T1, Orexin/Hypocretin receptor type 1
Description: Agonist activity at human OX1R expressed in CHO-K1 cells assessed as increase in intracellular calcium

[8] = target: T4, Orexin receptor type 2 (Homo sapiens, UniProt O43614)
T4 sequence (O43614 whole entry): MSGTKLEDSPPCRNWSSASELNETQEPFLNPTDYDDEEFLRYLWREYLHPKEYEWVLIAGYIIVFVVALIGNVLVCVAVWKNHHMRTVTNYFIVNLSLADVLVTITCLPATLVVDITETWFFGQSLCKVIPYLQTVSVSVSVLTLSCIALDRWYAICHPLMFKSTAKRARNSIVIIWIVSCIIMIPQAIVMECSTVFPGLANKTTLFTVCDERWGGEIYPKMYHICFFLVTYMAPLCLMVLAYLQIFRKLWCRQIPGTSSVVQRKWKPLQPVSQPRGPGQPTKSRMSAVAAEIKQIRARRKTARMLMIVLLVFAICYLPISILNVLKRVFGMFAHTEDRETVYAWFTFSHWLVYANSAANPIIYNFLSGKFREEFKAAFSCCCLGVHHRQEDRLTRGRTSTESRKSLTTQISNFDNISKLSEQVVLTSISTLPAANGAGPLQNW
Description: Agonist activity at human OX2R expressed in CHO-K1 cells assessed as increase in intracellular calcium

| EC50 [7] | EC50 [8] | SMILES | also measured |
| --- | --- | --- | --- |
| – | – | COc1ccc(-c2cccc(C(=O)N(C)C)c2)cc1S(=O)(=O)Nc1cccc(CCNC(=O)c2ccccc2-n2nccn2)c1 | EC50 [1]: 36000 nM |
| – | – | COc1cccc(CC(=O)N(C)[C@@H]2CCCc3ccc(NS(=O)(=O)c4cc(-c5cccc(C(=O)N(C)C)c5)ccc4OC)cc32)c1 | Kp [2]: 0.002; EC50 [3]: 174 nM; concentration [4]: 25 µM; Ct [5]: 61.1 pmol/g; EC50 [6]: 69 nM |
| 3590 nM | – | COc1cccc(CC(=O)N(C)[C@H]2CCCc3ccc(NS(=O)(=O)c4cc(/C=C/C(=O)Nc5ccncc5)ccc4OC)cc32)c1 | – |
| 573 nM | > 10000 nM | CCCCNC(=O)/C=C/c1ccc(OC)c(S(=O)(=O)Nc2ccc3c(c2)C(N(C)C(=O)Cc2cccc(OC)c2)CCC3)c1 (centres undefined) | – |
| 581 nM | – | COc1cccc(CC(=O)N(C)C2CCCc3ccc(NS(=O)(=O)c4cc(/C=C/C(N)=O)ccc4OC)cc32)c1 (centres undefined) | – |
| 501 nM | > 10000 nM | CNC(=O)/C=C/c1ccc(OC)c(S(=O)(=O)Nc2ccc3c(c2)C(N(C)C(=O)Cc2cccc(OC)c2)CCC3)c1 (centres undefined) | – |
| 271 nM | 2410 nM | COc1cccc(CC(=O)N(C)C2CCCc3ccc(NS(=O)(=O)c4cc(/C=C/C(=O)NCCN(C)C)ccc4OC)cc32)c1 (centres undefined) | – |
| 201 nM | 955 nM | COc1cccc(CC(=O)N(C)C2CCCc3ccc(NS(=O)(=O)c4cc(/C=C/C(=O)Nc5ccccn5)ccc4OC)cc32)c1 (centres undefined) | – |
| 1760 nM | – | COc1cccc(CC(=O)N(C)C2CCCc3ccc(NS(=O)(=O)c4cc(CCC(=O)N(C)C)ccc4OC)cc32)c1 (centres undefined) | – |
| 187 nM | 275 nM | COc1cccc(CC(=O)N(C)C2CCCc3ccc(NS(=O)(=O)c4cc(/C=C/C(=O)N(C)c5ccncc5)ccc4OC)cc32)c1 (centres undefined) | – |
| 5920 nM | 1290 nM | COc1cccc(CC(=O)N(C)C2CCCc3ccc(NS(=O)(=O)c4cc(-c5ccccc5)ccc4OC)cc32)c1 (centres undefined) | – |
| 43.4 nM | 295 nM | COc1cccc(CC(=O)N(C)C2CCCc3ccc(NS(=O)(=O)c4cc(/C=C/C(=O)Nc5cccnc5)ccc4OC)cc32)c1 (centres undefined) | – |
| 747 nM | – | COc1cccc(CC(=O)N(C)[C@@H]2CCCc3ccc(NS(=O)(=O)c4cc(/C=C/C(=O)Nc5ccncc5)ccc4OC)cc32)c1 | EC50 [3]: 154 nM; concentration [4]: 32 µM; Ct [5]: 137 pmol/g; EC50 [6]: 457 nM |
| 472 nM | 3290 nM | COc1cccc(CC(=O)N(C)C2CCCc3ccc(NS(=O)(=O)c4cc(/C=C/C(=O)Nc5ccccc5)ccc4OC)cc32)c1 (centres undefined) | – |
| – | 1020 nM | COc1cccc(CC(=O)N(C)C2CCCc3ccc(NS(=O)(=O)c4cc(CCCC(=O)N(C)C)ccc4OC)cc32)c1 (centres undefined) | – |
| 1040 nM | – | COc1cccc(CC(=O)N(C)C2CCCc3ccc(NS(=O)(=O)c4cc(CC(=O)N(C)C)ccc4OC)cc32)c1 (centres undefined) | – |
| 1280 nM | > 10000 nM | COc1cccc(CC(=O)N(C)C2CCCc3ccc(NS(=O)(=O)c4cc(/C=C/C(=O)N(C)C)ccc4OC)cc32)c1 (centres undefined) | – |
| 607 nM | 146 nM | COc1cccc(CC(=O)N(C)C2CCCc3ccc(NS(=O)(=O)c4cc(C(=O)N(C)C)ccc4OC)cc32)c1 (centres undefined) | – |
| 476 nM | > 10000 nM | COCCNC(=O)/C=C/c1ccc(OC)c(S(=O)(=O)Nc2ccc3c(c2)C(N(C)C(=O)Cc2cccc(OC)c2)CCC3)c1 (centres undefined) | – |
| 15.3 nM | – | COc1cccc(CC(=O)N(C)C2CCCc3ccc(NS(=O)(=O)c4cc(/C=C/C(=O)Nc5ccncc5)ccc4OC)cc32)c1 (racemic) | – |
